According to patent US6713477B1, “Hydroxamic acid derivatives” (Sumitomo Pharmaceuticals Company, Limited, priority 2000, dated 2004):

Tests used:
[1] = biological target: T1, MMP-3 (Matrix Metalloproteinase-3, Stromelysin-1) (Homo sapiens, UniProt P08254); experiment: Inhibition assay against MMP-3 (fluorescent MCA-labeled substrate); format: biochemical; details: Table 10; active MMP at 20 nM, 37° C., 1.5 hours; read-out: IC50 MMP3
T1 construct: C-terminal truncated form of human prostromelysin cDNA; made in house; host or cells: E. coli
Experimental: C-terminal truncated form of human prostromelysin cDNA (proMMP-3, cDNA sequence in Nature, 348, 699-704 (1990)) was subcloned, expressed in E.coli and purified as described previously (Biochemistry 30, 6476-6483 (1991)). Activation of proMMP-3 was achieved by treatment with 1 mM 4-aminophenylmercuric acetate at 37° C. for 60 min.
(§1) Enzymatic assays were performed in accordance with C. G. Knight's method (FEBS Lett., 296(3), 263-266 (1992)). The fluorescent MCA-labeled substrate, (7-methoxycumaline-4-yl)-Pro-Leu-Gly-Leu-L-[N-(2,4-dinitrophenyl)-L-2,3-diaminopropionyl]-Ala-Arg-NH2 (Peptide Institute. Inc.) was used for measuring the kinetics of inhibition for each tested compound.
(§2) The substrate was incubated at 37° C. for 1.5 hours (MMP-1; for 24 hours) with active MMP (at 20 nM, except MMP-13 at 5 nM) and a test compound in assay buffer containing 100 mM Tris-HCl (pH7.5), 10 mM CaCl2, 100 MM NaCl and 0.05% Brij-35.

[2] = biological target: T2, MMP-13 (Matrix Metalloproteinase-13, Collagenase-3) (Homo sapiens, UniProt P45452); experiment: Inhibition assay against MMP-13 (fluorescent MCA-labeled substrate); format: biochemical; details: Table 10; active MMP-13 at 5 nM, 37° C., 1.5 hours; read-out: IC50 MMP13
T2 construct: made in house; host or cells: E. coli BL21 (DE3), pET11a
From the text: To subclone C-terminal truncated form of procollagenase-3 (proMMP-13) cDNA (J.Biol.Chem., 269(24), 16766-16773 (1994)), two synthetic oligonucleotide primer (5′-[…]-3′ and 5′-[…]-3′: the former incorporates sequences for a unique NdeI site (underlined) including initial methionine, and the latter has sequences for a stop codon and BamHI site (underlined)) were used with human chondrocyte cDNA library (CLONTECH) in PCR. With these primers and Pfu DNA polymerase (STRATAGENE) in PCR, 767 bp fragment was generated, which encodes 84 amino acid prosequence and 164 amino acids of mature MMP-13. The fragment was digested with NdaI and BamHI, ligated into the NdeI and BamHI sites of pET11a (STRATAGENE), transformed in E.coli BL21 (DE3) and cultured. The crude cell extract was prepared as described in Biochemistry. The extract was dialyzed against 20 mM Tris-HCl(pH7.2)/5 mM CaCl2/0.02% NaN3 and applied to a SP-Sepharose HP column (1.6×10 cm, Amersham-Pharmacia Biotech), and elution was performed with 50 mL linear gradient of 0 to 0.3 M NaCl (partially purified proMMP-13 was eluted at 0.2 M approximately). The fraction was dialyzed against 20 mM Tris-HCl(pH7.9)/5 mM CaCl2,/200 mM (NH4)2SO4/0.02% NaN3 and applied to a Phenyl Sepharose HP column (1.6×5 cm, Amersham-Pharmacia Biotech), and elution was performed with 20 mL linear gradient of 0.2 to 0 M (NH4)2SO4 (pure proHMP-13 was eluted at 50 mM approximately). The fraction was concentrated by YM-5 ultrafiltration membrane and activated with 4-aminophenylmercuric acetate and active MMP-13 was separated from propeptide fragments by gel filtration chromatography as described in Biochemistry.
as §1, §2

T1 sequence (P08254 100-272 limits assumed): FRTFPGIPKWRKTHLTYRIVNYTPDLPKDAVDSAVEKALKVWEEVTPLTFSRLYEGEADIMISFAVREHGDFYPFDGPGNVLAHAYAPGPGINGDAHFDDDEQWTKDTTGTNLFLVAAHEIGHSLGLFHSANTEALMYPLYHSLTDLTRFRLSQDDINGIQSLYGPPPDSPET

SMILES	IC50 [1] [nM]	IC50 [2] [nM]
COc1cccc(C2SC(CC(=O)NO)C(=O)N2CC(Cl)CCCCl)c1[N+](=O)[O-] (stereo not shown) [Example 10]	31600	5300
COc1ccc(C2SC(CC(=O)NO)C(=O)N2CCCc2ccccc2)cc1 (stereo not shown) [Example 13]	> 50000	13200
COc1cccc(C2SC(CC(=O)NO)C(=O)N2CCc2ccc(O)cc2)c1OC (stereo not shown) [Example 19]	1000	> 50000
CCCCC#Cc1ccc(C2SCC(=O)N2C(CC(C)C)C(=O)NO)cc1 (stereo not shown) [Example 42]	> 10000	759
CC(C)CC(C(=O)NO)N1C(=O)CSC1c1ccc(-c2ccc(Cl)cc2)o1 (stereo not shown) [Example 46]	894	134
COc1ccc(C2SCC(=O)N2C(CCSC)C(=O)NO)cc1F (stereo not shown) [Example 71]	9070	249
CC(C)CC(C(=O)NO)N1C(=O)CSC1c1ccc(-c2cc(C(F)(F)F)nn2C)s1 (stereo not shown) [Example 88]	3800	62
COc1ccc(C2SCC(=O)N2C(COC(C)(C)C)C(=O)NO)cc1 (stereo not shown) [Example 105]	6720	231
COc1ccc(C2SCC(=O)N2C(Cc2ccc(OC(C)(C)C)cc2)C(=O)NO)cc1 (stereo not shown) [Example 109]	599	43
O=C(NO)C(Cc1c[nH]c2ccccc12)N1C(=O)CSC1c1ccc(Cl)cc1 (stereo not shown) [Example 121]	2550	128
CC(C)CC(C(=O)NO)N1C(=O)CSC1c1ccc(Cl)cc1 (stereo not shown) [Example 130]	1140	56
CCCC(C(=O)NO)N1C(=O)CSC1c1ccc(Oc2ccccc2)cc1 (stereo not shown) [Example 143]	1270	64
CCC(C)C(C(=O)NO)N1C(=O)CSC1c1ccc(OC)c(F)c1 (stereo not shown) [Example 175]	1140	112
CCC(C)C(C(=O)NO)N1C(=O)CSC1c1ccc(SC)cc1 (stereo not shown) [Example 176]	1060	100
CCCCC(C(=O)NO)N1C(=O)CSC1c1cc2ccccc2o1 (stereo not shown) [Example 195]	1890	119
COc1ccc(C2SC(CC(=O)NCc3cccnc3)C(=O)N2C(Cc2ccccc2)C(=O)NO)cc1 (stereo not shown) [Example 211]	895	108
CC(C)CC(C(=O)NO)N1C(=O)C(CC(=O)NCc2ccco2)SC1c1ccc(Cl)cc1 (stereo not shown) [Example 218]	422	56
COc1ccc(C2SC(CC(=O)NC3CCCCC3)C(=O)N2C(CC(C)C)C(=O)NO)cc1 (stereo not shown) [Example 239]	274	35
Cc1cc(NC(=O)CC2SC(c3ccc(Cl)cc3)N(C(Cc3ccc(OC(C)(C)C)cc3)C(=O)NO)C2=O)no1 (stereo not shown) [Example 255]	1200	106
COC(C)(C)NC(=O)CC1SC(c2ccc(Cl)cc2)N(C(Cc2ccc(OC(C)(C)C)cc2)C(=O)NO)C1=O (stereo not shown) [Example 257]	267	23
C=CCNC(=O)CC1SC(c2ccc(Cl)cc2)N(C(CC(C)C)C(=O)NO)C1=O (stereo not shown) [Example 262]	850	66
CCCNC(=O)CC1SC(c2ccc(Cl)cc2)N(C(Cc2ccc(OC(C)(C)C)cc2)C(=O)NO)C1=O (stereo not shown) [Example 283]	614	37
CCCN(CCC)C(=O)CC1SC(c2ccc(Cl)cc2)N(C(CC(C)C)C(=O)NO)C1=O (stereo not shown) [Example 306]	987	122
COCCNC(=O)CC1SC(c2ccc(Cl)cc2)N(C(Cc2ccc(OC(C)(C)C)cc2)C(=O)NO)C1=O (stereo not shown) [Example 316]	442	26
CNC(=O)CC1SC(c2ccc(OC)cc2)N(C(Cc2ccc(OC(C)(C)C)cc2)C(=O)NO)C1=O (stereo not shown) [Example 324]	733	63

SMILES	IC50 [1] [nM]	IC50 [2] [nM]
COCCCNC(=O)CC1SC(c2ccc(OC)cc2)N(C(Cc2ccc(OC(C)(C)C)cc2)C(=O)NO)C1=O (stereo not shown) [Example 329]	155	11
COc1ccc(C2SC(CC(=O)NCCCN3CCCCC3C)C(=O)N2C(Cc2ccc(OC(C)(C)C)cc2)C(=O)NO)cc1 (stereo not shown) [Example 330]	745	66
COc1ccc(C2SC(CC(=O)NCc3ccco3)C(=O)N2C(Cc2ccc(OC(C)(C)C)cc2)C(=O)NO)cc1 (stereo not shown) [Example 333]	794	70
COc1ccc(C2SC(CC(=O)Nc3ccccn3)C(=O)N2C(Cc2ccc(OC(C)(C)C)cc2)C(=O)NO)cc1 (stereo not shown) [Example 361]	446	53
COc1ccc(/C=C2\Sc3cc(Cl)ccc3N(CC(=O)NO)C2=O)cc1 [Example 370]	1200	35
COc1ccc(/C=C2\Sc3ccc(C(F)(F)F)cc3N(CC(=O)NO)C2=O)cc1 [Example 371]	880	36
O=C(CN1C(=O)C(=Cc2ccccn2)Sc2ccccc21)NO [Example 378]	> 50000	16000
O=C(CN1C(=O)/C(=C/c2ccccc2)Sc2ccccc21)NO [Example 388]	23000	1600
O=C(CN1C(=O)/C(=C/c2ccc(-c3ccc(Br)cc3)o2)Sc2ccccc21)NO [Example 389]	> 50000	29000
O=C(CN1C(=O)C(Cc2ccc(O)cc2)Sc2ccccc21)NO (stereo not shown) [Example 406, 2H-2-(4-Hydroxybenzyl)-1,4-benzothiazin-3(4H)-one-4-yl-acetic Acid N-Hydroxyamide]	3230	257
Cc1ccc(CC2Sc3ccccc3N(CC(=O)NO)C2=O)cc1 (stereo not shown) [Example 407, 2H-2-(4-Methylbenzyl)-1,4-benzothiazin-3(4H)-one-4-yl-acetic acid N-hydroxyamide]	433	24
O=C(CN1C(=O)C(Cc2ccc(Oc3ccccc3)cc2)Sc2ccccc21)NO (stereo not shown) [Example 409]	279	12
O=C(CN1C(=O)C(Cc2ccc(-c3ccccc3)cc2)Sc2ccccc21)NO (stereo not shown) [Example 419]	514	63
CCN(CC)c1ccc(CC2Sc3ccccc3N(CC(=O)NO)C2=O)cc1 (stereo not shown) [Example 422]	> 10000	4810
O=C(CN1C(=O)C(Cc2cccnc2)Sc2ccccc21)NO (stereo not shown) [Example 423]	5130	1220
O=C(CN1C(=O)C(Cc2ccc(Br)cc2)Sc2ccccc21)NO (stereo not shown) [Example 426]	375	38
COc1ccc(CC2Sc3cccc(Cl)c3N(CC(=O)NO)C2=O)cc1 (stereo not shown) [Example 429]	5620	3600
COc1ccc(CC2Sc3cc(C)c(C)cc3N(CC(=O)NO)C2=O)cc1 (stereo not shown) [Example 431]	238	13
COc1ccc(CC2Sc3ccccc3N([C@H](C(=O)NO)C(C)C)C2=O)cc1 (stereo partly shown) [Example 436]	938	671
COc1ccc(CC2Sc3ccccc3N([C@H](C)C(=O)NO)C2=O)cc1 (stereo partly shown) [Example 438]	1660	375
COc1ccc(NC(=O)CC2Sc3ccccc3N(CC(=O)NO)C2=O)cc1 (stereo not shown) [Example 441, 2H-2-[N′-(4-Methoxyphenyl)-carbamoylmethyl]-1,4-benzothiazin-3(4H)-one-4-yl-acetic Acid N-Hydroxylamide]	2960	118
COc1ccc(C2SC(CC(=O)NC(C)C)C(=O)N2C(Cc2ccccc2)C(=O)NO)cc1 (stereo not shown) [Example 479]	270	19
CC(C)CC(C(=O)NO)N1C(=O)C(CC(=O)NCc2ccco2)[S+]([O-])C1c1ccc(Oc2ccc(Cl)cc2)cc1 (stereo not shown) [Example 739]	301	17
COCCNC(=O)CC1C(=O)N(C(CC(C)C)C(=O)NO)C(c2ccc(Oc3ccc(Cl)cc3)cc2)[S+]1[O-] (stereo not shown) [Example 740]	459	12
COc1ccc(CC2Sc3cc(C(=O)N[C@H](CO)CC(C)C)ccc3N(CC(=O)NO)C2=O)cc1 (stereo partly shown) [Example 865]	53	4.9
